Source: PMC6278354, “Investigation of New Orexin 2 Receptor Modulators Using In Silico and In Vitro Methods” (Molecules, 2018)
Read-outs that look alike come from different tables or passages of the source.

How the values were obtained:
[1] = PAMPA assay for prediction of BBB penetration (polar brain lipid); conditions: for Papp at 30 µM: PAMPA, pH 7.4; for CNS Predicted Availability: class from PAMPA Pe; for BBB permeation via passive diffusion, in words: from PAMPA Pe
MTT cytotoxicity assay = assay type: cell-based; conditions: Chinese hamster
Protocol: (§1) Adherent epithelial CHO-K1 cell line (Chinese hamster ovary, ATCC, #CCL-61, Manassas, VA, USA) was grown in Ham’s F12 Nutrient Mixture supplemented with 10% heat-inactivated FBS and antibiotics 1% penicillin (10,000 U/mL)/streptomycin (10,000 µg/mL) at 37 °C, 95% humidity and under 5% CO2.
(§2) The cytotoxic effect of the studied compounds was assessed using standard MTT (3-[4–dimethylthiazol-2-yl]-2,5-diphenyltetrazolium bromide) assay on the CHO-K1 cell line. […] Cells were seeded in 96-well plates and exposed to the tested compounds in the medium (100 µL) for 24 h at 37 °C, 95% humidity, and in an atmosphere of 5% CO2. Subsequently, this medium was replaced by the medium containing MTT (10 µM) and incubated for another 3–4 h. After that, the medium with MTT was removed and formazan crystals were dissolved by the addition of 100 µL DMSO. Viability of the cells was estimated spectrophotometrically by the amount of produced formazan. The absorbance was measured at 570 nm, with 650 nm as a reference wavelength on a Synergy HT reader (Biotek, USA). Results were expressed as IC50 from the control-subtracted triplicates (in comparison with untreated control) using non-linear regression (four parameters) in GraphPad Prism 7.03 (GraphPad Software Inc., CA, USA).

human OX2R [2] = biological target: T1, human OX2R (Homo sapiens, UniProt O43614); assay: OX2R calcium assay, antagonist mode against orexin A (Fluo-3, CHO-K1 cells stably expressing human OX2R); assay type: cell-based; conditions: for IC50: 0.1 μM orexin A as agonist, mean ± SEM, n = 3, read-out: IC50 antagonistic effect in orexin A-OX2R interaction; for antagonistic screening: reduction of orexin A response signal: ligand 10 μM, orexin A 100 nM, data not shown
T1 construct: host or cells: CHO-K1
T1 sequence (O43614 1-444): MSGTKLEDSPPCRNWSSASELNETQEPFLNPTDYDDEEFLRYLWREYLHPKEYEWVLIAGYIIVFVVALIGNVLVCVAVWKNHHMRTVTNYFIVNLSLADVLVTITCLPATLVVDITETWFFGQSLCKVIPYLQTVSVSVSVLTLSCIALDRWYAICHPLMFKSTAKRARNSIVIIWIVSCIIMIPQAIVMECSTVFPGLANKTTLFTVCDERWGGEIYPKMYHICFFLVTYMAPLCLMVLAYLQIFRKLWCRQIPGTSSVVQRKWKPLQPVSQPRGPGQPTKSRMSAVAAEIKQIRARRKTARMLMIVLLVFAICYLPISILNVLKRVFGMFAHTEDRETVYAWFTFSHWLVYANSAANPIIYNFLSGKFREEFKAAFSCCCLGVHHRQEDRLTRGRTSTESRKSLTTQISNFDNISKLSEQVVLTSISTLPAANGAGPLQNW

in vitro = conditions: PAMPA, pH 7.4
human OX2R [3] = biological target: T1, human OX2R; assay: OX2R calcium assay, agonist mode (Fluo-3, CHO-K1 cells stably expressing human OX2R); assay type: cell-based; conditions: for agonistic effect in screening: 10 μM ligand; for agonistic effect at higher concentrations: higher concentrations than 10 μM, data not shown
CHO-K1 cell line = assay: MTT cytotoxicity assay; assay type: cell-based; conditions: Chinese hamster, 24 h
Protocol: as §1, §2

[4] = PAMPA, pH 7.4
[5] = CHO-K1 cells, MTT, 24 h exposure, read-out: Cytotoxicity CHO-K1 IC50 ± SEM

SMILES	Papp at 30 µM [1]	IC50 (human OX2R [2])	CNS Predicted Availability [1]	IC50 at 24 h (MTT cytotoxicity assay; [5])	antagonistic screening: reduction of orexin A response signal (human OX2R [2])	other results
O=C(c1cnn(-c2ncc3c(n2)-c2ccccc2CC3)c1C1CC1)N1CCN(Cc2ccccc2)CC1 [Ligand L1, 1-(1-{5H,6H-benzo[h]quinazolin-2-yl}-5-cyclopropyl-1H-pyrazole-4-carbonyl)-4-benzylpiperazine]	10.2 ± 0.9 ×10⁻⁶ cm/s	–	CNS + (CNS + (high BBB permeation predicted): Pe (×10^−6 cm s^−1) > 4.0)	78.8 ± 6.88 µM	–	–
O=C1CN(C(=O)CN2CCN(S(=O)(=O)c3ccc4ccccc4c3)CC2)c2ccccc2N1 [Ligand L2, 4-{2-[4-(naphthalene-2-sulfonyl)piperazin-1-yl]acetyl}-1,2,3,4-tetrahydroquinoxalin-2-one]	31.6 ± 3.4 ×10⁻⁶ cm/s	–	CNS + (CNS + (high BBB permeation predicted): Pe (×10^−6 cm s^−1) > 4.0)	165 ± 5.36 µM	–	–
O=C(c1cc(-c2ccco2)nc2ccccc12)N1CCN(C(=O)C2COc3ccccc3O2)CC1 (stereo not shown) [Ligand L3, 4-[4-(2,3-dihydro-1,4-benzodioxine-2-carbonyl)piperazine-1-carbonyl]-2-(furan-2-yl)quinoline]	17.9 ± 2.2 ×10⁻⁶ cm/s	8.9 ± 0.43 µM	CNS + (CNS + (high BBB permeation predicted): Pe (×10^−6 cm s^−1) > 4.0)	279 ± 36.6 µM	significantly reduce the signal of orexin A response	–
O=C(c1cc(-c2ccco2)nc2ccccc12)N1CCN(c2ccc(=O)n(-c3ccc(F)cc3)n2)CC1 [Ligand L4, 2-(4-fluorophenyl)-6-{4-[2-(furan-2-yl)quinoline-4-carbonyl]piperazin-1-yl}-2,3-dihydropyridazin-3-one]	18.3 ± 0.1 ×10⁻⁶ cm/s	2.2 ± 0.47 µM	CNS + (CNS + (high BBB permeation predicted): Pe (×10^−6 cm s^−1) > 4.0)	99.8 ± 10.7 µM	significantly reduce the signal of orexin A response	–
CC1CCCC(=O)CCC/C=C/c2cc3c(c(O)c2C(=O)O1)C(c1cc2ccccc2nc1O)CC(=O)O3 (stereo not shown) [Ligand L5, (12E)-22-hydroxy-20-(2-hydroxyquinolin-3-yl)-4-methyl-3,17-dioxatricyclo[12.8.0.0^16,21]docosa-1(14),12,15,21-tetraene-2,8,18-trione]	–	–	CNS + (CNS + (high BBB permeation predicted): Pe (×10^−6 cm s^−1) > 4.0)	–	–	IC50 at 24 h (MTT cytotoxicity assay; MTT, 24 h exposure, read-out: Cytotoxicity CHO-K1 IC50 ± SEM): 59 ± 6.41 µM; Papp (in vitro): 12 ± 2.5 ×10⁻⁶ cm/s
O=C(Nc1ccc2n(c1=O)C[C@H]1C[C@@H]2CN(C(=O)c2ccccn2)C1)c1ccccc1 [Ligand L8, N-[(1R,9S)-6-oxo-11-(pyridine-2-carbonyl)-7,11-diazatricyclo[7.3.1.0^2,7]trideca-2,4-dien-5-yl]benzamide]	–	–	CNS +/− (CNS +/− (BBB permeation uncertain): Pe (×10^−6 cm s^−1) from 4.0 to 2.0)	–	–	BBB permeation via passive diffusion, in words [1]: uncertain permeation through the BBB; IC50 at 24 h (MTT cytotoxicity assay; Cytotoxicity CHO-K1 IC50 ± SEM): > 700 µM; IC50 (CHO-K1 cell line): ~700 µM; Pe ± SEM [4]: 2.0–4.0; Papp at 30 µM (in vitro): 4 ± 0.3 ×10⁻⁶ cm/s
CCn1nnc2cc(C(=O)Nc3ccc4[nH]c(-c5cc(F)ccc5F)nc4c3)ccc21 [Ligand L11, N-[2-(2,5-difluorophenyl)-1H-1,3-benzodiazol-5-yl]-1-ethyl-1H-1,2,3-benzotriazole-5-carboxamide]	–	–	–	28.3 ± 4.07 µM	–	agonistic effect in screening (human OX2R [3]): subtle agonistic effect; agonistic effect at higher concentrations (human OX2R [3]): neither an agonistic nor dose-response effect
CNC(=C[N+](=O)[O-])NCCSCc1ccc(CN(C)C)o1 [Ranitidine, reference compound]	–	–	CNS − (CNS − (low BBB permeation predicted): Pe (×10^−6 cm s^−1) < 2.0)	–	–	Papp (in vitro): 0.04 ± 0.02 ×10⁻⁶ cm/s

Continued, in another order:

Papp at 30 µM [1]	IC50 (human OX2R [2])	SMILES	CNS Predicted Availability [1]	IC50 at 24 h (MTT cytotoxicity assay; [5])	antagonistic screening: reduction of orexin A response signal (human OX2R [2])	other results
17.6 ± 6.4 ×10⁻⁶ cm/s	12.2 ± 3.1 µM	Cn1c(=O)c2c(-c3ccccc3)n3c(c2n(C)c1=O)C(c1coc2ccccc2c1=O)OCC3 (stereo not shown) [Ligand L6, 3,5-dimethyl-13-(4-oxo-4H-chromen-3-yl)-8-phenyl-12-oxa-3,5,9-triazatricyclo[7.4.0.0^2,7]trideca-1,7-diene-4,6-dione]	CNS + (CNS + (high BBB permeation predicted): Pe (×10^−6 cm s^−1) > 4.0)	> 100 µM	significantly reduce the signal of orexin A response	agonistic effect in screening (human OX2R [3]): subtle agonistic effect; agonistic effect at higher concentrations (human OX2R [3]): neither an agonistic nor dose-response effect
3.37 ± 2.1 ×10⁻⁶ cm/s	25 ± 2.6 µM	Cc1ccccc1Cn1cc(/C=C2\C(=N)N3N=C(CC(=O)N4CCCC4)SC3=NC2=O)c2ccccc21 [Ligand L7, (6E)-5-imino-6-({1-[(2-methylphenyl)methyl]-1H-indol-3-yl}methylidene)-2-[2-oxo-2-(pyrrolidin-1-yl)ethyl]-5H,6H,7H-[1,3,4]thiadiazolo[3,2-a]pyrimidin-7-one]	CNS +/− (CNS +/− (BBB permeation uncertain): Pe (×10^−6 cm s^−1) from 4.0 to 2.0)	61.8 ± 3.74 µM	significantly reduce the signal of orexin A response	Pe ± SEM ([1]; PAMPA-BBB, PBS pH 7.4, 30 µM donor, at least three measurements): 2.0–4.0 ×10^−6 cm s^−1; BBB permeation via passive diffusion, in words [1]: uncertain permeation through the BBB
32.3 ± 1.5 ×10⁻⁶ cm/s	–	O=C(Cn1nc(-c2ccc(F)cc2)oc1=O)N1CCCC1c1ccc2c(c1)OCCCO2 (stereo not shown) [Ligand L9, 3-{2-[2-(3,4-dihydro-2H-1,5-benzodioxepin-7-yl)pyrrolidin-1-yl]-2-oxoethyl}-5-(4-fluorophenyl)-2,3-dihydro-1,3,4-oxadiazol-2-one]	CNS + (CNS + (high BBB permeation predicted): Pe (×10^−6 cm s^−1) > 4.0)	144 ± 11.1 µM	–	agonistic effect in screening (human OX2R [3]): subtle agonistic effect; agonistic effect at higher concentrations (human OX2R [3]): neither an agonistic nor dose-response effect
18.9 ± 2.4 ×10⁻⁶ cm/s	27.8 ± 0.5 µM	O=C1CC(C(=O)Nc2cccc(-c3ccc4c(c3)CCO4)c2)c2ccccc2N1 (stereo not shown) [Ligand L10, N-[3-(2,3-dihydro-1-benzofuran-5-yl)phenyl]-2-oxo-1,2,3,4-tetrahydroquinoline-4-carboxamide]	CNS + (CNS + (high BBB permeation predicted): Pe (×10^−6 cm s^−1) > 4.0)	53.9 ± 5.03 µM	significantly reduce the signal of orexin A response	–
